# Experimental data from patent US20220274938A1, “5-[(1S)-1-(4-BROMOPHENOXY)ETHYL]-2H-TETRAZOLE DERIVATIVES AND RELATED COMPOUNDS AS CLC-1 ION CHANNEL INHIBITORS FOR TREATING NEUROMUSCULAR DISORDERS” (NMD PHARMA A/S, priority 2019, published 2022).
# Tests used:
# [1] = test system: isolated rat soleus muscles; assay: Measurement of force in an in vitro model: isolated rat soleus nerve-muscle preparation with tubocurarine; format: cell-based; settings: Rattus norvegicus, 40 min; 50 μM test compound, after 40 mins of compound exposure; 115 nM tubocurarine for 90 mins; read-out: Point increase (%) of initial force that was restored
# female Lewis rats = assay: In situ muscle contractile characteristics (isometric hindlimb force) under Cisatracurium infusion; format: in vivo, rat; settings: 21.6 mg/kg i.v.; 80 Hz stimulation; neuromuscular transmission partially inhibited by Cisatracurium
# Description: Isometric hindlimb force was measured in 12-week old female Lewis rats in the presence and absence of compound.
# Rats were placed under anesthesia with isoflurane (2-4%), intubated and subsequently connected to a micro ventilator (Microvent 1, Hallowell EMC, US). Two stimulation electrodes were inserted through the skin to stimulate the sciatic nerve. A small incision was made proximal to the ankle, to expose the Achilles tendon, which was tied by cotton string, and connected to a force transducer (Fort250, World Precision Instruments) with adjustable position (Vernier control). The Achilles tendon was then cut distal to the attached cotton string. […]
# Muscle contractile properties were assessed by applying an electrical current (under supramaximal voltage conditions) to the nerve and recording the force generated by the muscle. The muscle was stretched until maximal force was obtained, when assessed by 2 Hz stimulation. Isometric force was measured every 30 seconds at 12 Hz (Twitch), 10 pulses, and at every 5 minutes at 80 Hz (Tetanic) for 1 second (80 pulses). […] The effect of test article was assessed on its ability to increase force generated from the stimulation pattern applied. The effect was assessed in the ability to increase force per se (tetanic, 80 Hz, stimulation), and the ratio between individual twitch peaks (12 Hz stimulation). […]
SMILES,activation at 50 µM [1] [%],increase in tetanic force (female Lewis rats) [%]
"C[C@H](Oc1ccc(Cl)cc1)C(=O)NOC1CCC1 [Compound C-80, (2S)-2-(4-chlorophenoxy)-N-cyclobutoxypropanamide]",47,
"C[C@H](Oc1ccc(Br)cc1F)c1nn[nH]n1 [Compound E-8, 5-[(1S)-1-(4-bromo-2-fluorophenoxy)ethyl]-2H-1,2,3,4-tetrazole]",34,11
